# Laboratory results published in patent publication US6737383B1, “Herbicidal oxadiazolidines” (priority 1999, dated 2004).
# Columns and labels:
# [1] = system: ladysthumb smartweed; experiment: Test C postemergence ladysthumb smartweed; assay type: in vivo, Polygonum persicaria; settings: 0 to 100 scale, 0 no effect, 100 complete control
# In short: (§1)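 Visual injury scored 0-100 (100 = complete control) versus untreated plants roughly 14 to 21 days after treatment. Plants were grown to suitable size in 60:40 sandy loam and potting mix, then treated postemergence with surfactant-containing solvent formulations.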
# [2] = system: goosegrass; experiment: Test D goosegrass; assay type: in vivo, Eleusine indica; settings: Postemergence, 0 to 100 scale
# [3] = system: soybean; experiment: Test C postemergence soybean; assay type: in vivo, Glycine max; settings: 0 to 100 scale, 0 no effect, 100 complete control
# In short: as §1
# [4] = system: fall panicum; experiment: Test C postemergence fall panicum; assay type: in vivo, Panicum dichotomiflorum; settings: 0 to 100 scale, 0 no effect, 100 complete control
# In short: as §1
# [5] = system: barnyardgrass; experiment: Test C postemergence barnyardgrass; assay type: in vivo, Echinochloa crus-galli; settings: 0 to 100 scale, 0 no effect, 100 complete control
# In short: as §1
# [6] = system: Green foxtail; experiment: Test D green foxtail; assay type: in vivo; settings: Preemergence, 0 to 100 scale
# In short: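 Visual injury ratings, 0 = no injury to 100 = complete control, taken 14 to 21 days after treatment. Test chemicals were in a surfactant-containing non-phytotoxic solvent; preemergence treatments went onto the sandy loam surface of seeded greenhouse pots within one day of sowing.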
# [7] = system: velvetleaf; experiment: Test C postemergence velvetleaf; assay type: in vivo, Abutilon theophrasti; settings: 0 to 100 scale, 0 no effect, 100 complete control
# In short: as §1
# [8] = system: arrowleaf sida; experiment: Test C postemergence arrowleaf sida; assay type: in vivo, Sida rhombifolia; settings: 0 to 100 scale, 0 no effect, 100 complete control
# In short: as §1
# [9] = system: black nightshade; experiment: Test E black nightshade; assay type: in vivo, Solanum nigra; settings: Preemergence
# [10] = system: scentless chamomile; experiment: Test E scentless chamomile; assay type: in vivo, Matricaria inodora; settings: Postemergence; for Plant response rating, Scentless chamo: 0 to 100 scale
# In short: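 For postemergence, application to 1- to 4-leaf plants growing in a 60:40 sandy loam–potting mix substrate. Formulation: non-phytotoxic solvent mixture plus surfactant. Untreated controls served as the reference for the visual rating after ~21–28 days.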
smiles,measurement,setting,value
C=CCn1c(=O)on(C(=O)N(c2ccc(F)cc2)C(C)C)c1=O [Compound 146],Plant response rating Ladysthumb,[1]; Rate 140 g/ha,0
same,Plant response rating Ladysthumb,[1]; Rate 280 g/ha,10
same,Plant response rating Ladysthumb,[1]; Rate 560 g/ha,85
same,"Plant response rating, Goosegrass","[2]; Rate 64 g/ha, 0 no injury, 100 complete control",0
same,"Plant response rating, Goosegrass","[2]; Rate 125 g/ha, 0 no injury, 100 complete control",35
same,"Plant response rating, Goosegrass",[2]; Rate 250 g/ha,30
same,"Plant response rating, Goosegrass",[2]; Rate 500 g/ha,80
same,"Plant response rating, Soybean",[3]; Rate 140 g/ha,40
same,"Plant response rating, Soybean",[3]; Rate 280 g/ha,50
same,"Plant response rating, Soybean",[3]; Rate 560 g/ha,60
same,"Plant response rating, Soybean",[3]; Rate 1120 g/ha,85
same,Plant response rating Fall panicum,[4]; Rate 140 g/ha,50
same,Plant response rating Fall panicum,[4]; Rate 280 g/ha,60
same,Plant response rating Fall panicum,[4]; Rate 560 g/ha,90
same,Plant response rating Fall panicum,[4]; Rate 1120 g/ha,90
same,"Plant response rating, Barnyardgrass",[5]; Rate 140 g/ha,60
same,"Plant response rating, Barnyardgrass",[5]; Rate 280 g/ha,80
same,"Plant response rating, Barnyardgrass",[5]; Rate 560 g/ha,85
same,"Plant response rating, Barnyardgrass",[5]; Rate 1120 g/ha,95
same,"Plant response rating, Green foxtail",[6]; Rate 250 g/ha,100
same,"Plant response rating, Green foxtail",[6]; Rate 500 g/ha,100
same,"Plant response rating, Velvetleaf",[7]; Rate 140 g/ha,0
same,"Plant response rating, Velvetleaf",[7]; Rate 280 g/ha,40
same,"Plant response rating, Velvetleaf",[7]; Rate 560 g/ha,40
same,"Plant response rating, Velvetleaf",[7]; Rate 1120 g/ha,60
same,Plant response rating Arrowleaf sida,[8]; Rate 140 g/ha,40
same,Plant response rating Arrowleaf sida,[8]; Rate 280 g/ha,45
same,Plant response rating Arrowleaf sida,[8]; Rate 560 g/ha,85
same,Plant response rating Arrowleaf sida,[8]; Rate 1120 g/ha,90
same,"Plant response rating, Blk nightshade","[9]; Rate 125 g/ha, 0 to 100 scale (0 no effect, 100 complete control)",85
same,Blk nightshade plant response rating (0 to 100 scale),[9]; Rate 250 g/ha,10
same,"Plant response rating, Blk nightshade","[9]; Rate 500 g/ha, 0 to 100 scale where 0 is no effect and 100 is complete control",100
same,"Plant response rating, Scentless chamo",[10]; Rate 62 g/ha,20
same,"Plant response rating, Scentless chamo",[10]; Rate 125 g/ha,10
same,"Plant response rating, Scentless chamo","[10]; Rate 500 g/ha, 0 no effect, 100 complete control",10
same,Scentless chamo plant response rating,"[10]; Rate 250 g/ha, 0 to 100 scale where 0 is no effect and 100 is complete control",10
